Test results as given in the supplement of paper PMC10307832.

How the values were obtained:
Experiment in all cases: relative viability (nuclei count vs DMSO), 5 days (fraction); higher = more cells survive
NCI-H1395 = tested on: NCI-H1395
How it was run: (§1)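 Relative viability is defined as nuclei in treated wells over nuclei in vehicle wells. Duplicate plates were run and medians reported. Lung cancer cell lines in 1536-well plates were dosed by pin tool one day after seeding, with one drug or with a fixed anchor-drug dose plus five library-drug doses (not always all listed) in √10 steps, and nuclei were counted after 5 days.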

NCI-H2009 = tested on: NCI-H2009
How it was run: as §1

SW 1573 = tested on: SW 1573
How it was run: as §1

HCC-366 = tested on: HCC-366
How it was run: as §1

NCI-H727 = tested on: NCI-H727
How it was run: as §1

NCI-H23 = tested on: NCI-H23
How it was run: as §1

NCI-H2228 = tested on: NCI-H2228
How it was run: as §1

HCC-827 = tested on: HCC-827
How it was run: as §1

CAL-12T = tested on: CAL-12T
How it was run: as §1

LCLC-103H = tested on: LCLC-103H
How it was run: as §1

HOP-62 = tested on: HOP-62
How it was run: as §1

NCI-H460 = tested on: NCI-H460
How it was run: as §1

NCI-H1355 = tested on: NCI-H1355
How it was run: as §1

EMC-BAC-2 = tested on: EMC-BAC-2
How it was run: as §1

COR-L 105 = tested on: COR-L 105
How it was run: as §1

NCI-H1755 = tested on: NCI-H1755
How it was run: as §1

HARA = tested on: HARA
How it was run: as §1

NCI-H1975 = tested on: NCI-H1975
How it was run: as §1

NCI-H1915 = tested on: NCI-H1915
How it was run: as §1

NCI-H1437 = tested on: NCI-H1437
How it was run: as §1

SK-LU-1 = tested on: SK-LU-1
How it was run: as §1

A-427 = tested on: A-427
How it was run: as §1

In the case of `NC(=O)Nc1cc(-c2cccc(F)c2)sc1C(=O)N[C@H]1CCCNC1` [AZD7762] + COc1cc2c(Oc3ccc(NC(=O)C4(C(=O)Nc5ccc(F)cc5)CC4)cc3F)ccnc2cc1OCCCN1CCOCC1 [Foretinib] (partner 0.25 µM), the relative viability (NCI-H1395; first compound 0.01 µM) is reported as 0.974, the relative viability (NCI-H1395; first compound 0.03162 µM) is reported as 1.08 and the relative viability (NCI-H1395; first compound 0.1 µM) is reported as 1.1. For the same compound, the relative viability (NCI-H1395; first compound 0.3162 µM) was 0.91, the relative viability (NCI-H1395; first compound 1 µM) was 0.452 and the relative viability (NCI-H2009; first compound 0.01 µM) was 1.25. The relative viability (NCI-H2009; first compound 0.03162 µM) was 1.27, the relative viability (NCI-H2009; first compound 0.1 µM) was 1.27 and the relative viability (NCI-H2009; first compound 0.3162 µM) was 1.13. For the same compound, the relative viability (NCI-H2009; first compound 1 µM) was 0.962, the relative viability (SW 1573; first compound 0.01 µM) was 0.845 and the relative viability (SW 1573; first compound 0.03162 µM) was 0.866. The relative viability (SW 1573; first compound 0.1 µM) was 0.99, the relative viability (SW 1573; first compound 0.3162 µM) was 1.12 and the relative viability (SW 1573; first compound 1 µM) was 1.02. The relative viability (HCC-366; first compound 0.01 µM) was 0.954, the relative viability (HCC-366; first compound 0.03162 µM) was 0.927 and the relative viability (HCC-366; first compound 0.1 µM) was 0.978. For the same compound, the relative viability (HCC-366; first compound 0.3162 µM) was 0.973, the relative viability (HCC-366; first compound 1 µM) was 0.312 and the relative viability (NCI-H727; first compound 0.01 µM) was 0.989. For the same compound, the relative viability (NCI-H727; first compound 0.03162 µM) was 0.804, the relative viability (NCI-H727; first compound 0.1 µM) was 0.728 and the relative viability (NCI-H727; first compound 0.3162 µM) was 0.889. For the same compound, the relative viability (NCI-H727; first compound 1 µM) was 0.466, the relative viability (NCI-H23; first compound 0.01 µM) was 0.886 and the relative viability (NCI-H23; first compound 0.03162 µM) was 1.09. It also gave a relative viability (NCI-H23; first compound 0.1 µM) of 0.976, a relative viability (NCI-H23; first compound 0.3162 µM) of 1.11 and a relative viability (NCI-H23; first compound 1 µM) of 0.366. It also gave a relative viability (NCI-H2228; first compound 0.01 µM) of 0.851, a relative viability (NCI-H2228; first compound 0.03162 µM) of 0.788 and a relative viability (NCI-H2228; first compound 0.1 µM) of 0.825. It also gave a relative viability (NCI-H2228; first compound 0.3162 µM) of 0.828, a relative viability (NCI-H2228; first compound 1 µM) of 0.265 and a relative viability (HCC-827; first compound 0.01 µM) of 0.975. For the same compound, the relative viability (HCC-827; first compound 0.03162 µM) was 1.06, the relative viability (HCC-827; first compound 0.1 µM) was 1.02 and the relative viability (HCC-827; first compound 0.3162 µM) was 1.08. It also gave a relative viability (HCC-827; first compound 1 µM) of 0.853, a relative viability (CAL-12T; first compound 0.01 µM) of 1.34 and a relative viability (CAL-12T; first compound 0.03162 µM) of 1.01. For the same compound, the relative viability (CAL-12T; first compound 0.1 µM) was 1.13, the relative viability (CAL-12T; first compound 0.3162 µM) was 0.874 and the relative viability (CAL-12T; first compound 1 µM) was 0.217. For the same compound, the relative viability (LCLC-103H; first compound 0.01 µM) was 0.815, the relative viability (LCLC-103H; first compound 0.03162 µM) was 0.829 and the relative viability (LCLC-103H; first compound 0.1 µM) was 0.82. For the same compound, the relative viability (LCLC-103H; first compound 0.3162 µM) was 0.764, the relative viability (LCLC-103H; first compound 1 µM) was 0.823 and the relative viability (HOP-62; first compound 0.01 µM) was 1.17. For the same compound, the relative viability (HOP-62; first compound 0.03162 µM) was 1.14, the relative viability (HOP-62; first compound 0.1 µM) was 1.23 and the relative viability (HOP-62; first compound 0.3162 µM) was 1.1. The relative viability (HOP-62; first compound 1 µM) was 1.14, the relative viability (NCI-H460; first compound 0.01 µM) was 1.12 and the relative viability (NCI-H460; first compound 0.03162 µM) was 1. It also gave a relative viability (NCI-H460; first compound 0.1 µM) of 1.01, a relative viability (NCI-H460; first compound 0.3162 µM) of 0.964 and a relative viability (NCI-H460; first compound 1 µM) of 0.176. For the same compound, the relative viability (NCI-H1355; first compound 0.01 µM) was 0.964, the relative viability (NCI-H1355; first compound 0.03162 µM) was 0.975 and the relative viability (NCI-H1355; first compound 0.1 µM) was 0.967. The relative viability (NCI-H1355; first compound 0.3162 µM) was 1.02, the relative viability (NCI-H1355; first compound 1 µM) was 0.995 and the relative viability (EMC-BAC-2; first compound 0.01 µM) was 1.08. It also gave a relative viability (EMC-BAC-2; first compound 0.03162 µM) of 1, a relative viability (EMC-BAC-2; first compound 0.1 µM) of 1.08 and a relative viability (EMC-BAC-2; first compound 0.3162 µM) of 1.04. The relative viability (EMC-BAC-2; first compound 1 µM) was 0.89, the relative viability (COR-L 105; first compound 0.01 µM) was 1.25 and the relative viability (COR-L 105; first compound 0.03162 µM) was 1.01. It also gave a relative viability (COR-L 105; first compound 0.1 µM) of 1.01, a relative viability (COR-L 105; first compound 0.3162 µM) of 1.09 and a relative viability (COR-L 105; first compound 1 µM) of 0.643. It also gave a relative viability (NCI-H1755; first compound 0.01 µM) of 0.908, a relative viability (NCI-H1755; first compound 0.03162 µM) of 0.96 and a relative viability (NCI-H1755; first compound 0.1 µM) of 0.921. The relative viability (NCI-H1755; first compound 0.3162 µM) was 0.918, the relative viability (NCI-H1755; first compound 1 µM) was 0.473 and the relative viability (HARA; first compound 0.01 µM) was 0.888. The relative viability (HARA; first compound 0.03162 µM) was 0.932, the relative viability (HARA; first compound 0.1 µM) was 0.91 and the relative viability (HARA; first compound 0.3162 µM) was 0.866. For the same compound, the relative viability (HARA; first compound 1 µM) was 0.197, the relative viability (NCI-H1975; first compound 0.01 µM) was 0.926 and the relative viability (NCI-H1975; first compound 0.03162 µM) was 0.943. For the same compound, the relative viability (NCI-H1975; first compound 0.1 µM) was 0.964, the relative viability (NCI-H1975; first compound 0.3162 µM) was 0.854 and the relative viability (NCI-H1975; first compound 1 µM) was 0.624. The relative viability (NCI-H1915; first compound 0.01 µM) was 1.18, the relative viability (NCI-H1915; first compound 0.03162 µM) was 1.08 and the relative viability (NCI-H1915; first compound 0.1 µM) was 1.09. For the same compound, the relative viability (NCI-H1915; first compound 0.3162 µM) was 1.04, the relative viability (NCI-H1915; first compound 1 µM) was 0.981 and the relative viability (NCI-H1437; first compound 0.01 µM) was 1.27. For the same compound, the relative viability (NCI-H1437; first compound 0.03162 µM) was 1.31, the relative viability (NCI-H1437; first compound 0.1 µM) was 1.24 and the relative viability (NCI-H1437; first compound 0.3162 µM) was 1.02. It also gave a relative viability (NCI-H1437; first compound 1 µM) of 1.13, a relative viability (SK-LU-1; first compound 0.01 µM) of 1.01 and a relative viability (SK-LU-1; first compound 0.03162 µM) of 0.737. The relative viability (SK-LU-1; first compound 0.1 µM) was 0.461, the relative viability (SK-LU-1; first compound 0.3162 µM) was 0.185 and the relative viability (SK-LU-1; first compound 1 µM) was 0.145. For the same compound, the relative viability (A-427; first compound 0.01 µM) was 1.08, the relative viability (A-427; first compound 0.03162 µM) was 0.976 and the relative viability (A-427; first compound 0.1 µM) was 1.03. For the same compound, the relative viability (A-427; first compound 0.3162 µM) was 0.781 and the relative viability (A-427; first compound 1 µM) was 0.755.
